From PubChem BioAssay AID1919014 (Molecular Pharmacology Branch, DTP, NCI, 2023)

Tested on: NCI-H1341 complex spheroids, percent test/control
Test: Anticancer human tumor NCI-H1341 cell line growth inhibition [AhR];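 note: spheroids exposed to agents for seven days before readout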
Conditions: for IC50: curve of first compound; for viability, T/C: stronger effect = lower value
Summary of the method: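 Spheroids combined tumor cells with HUVEC endothelial cells and human MSCs as stroma. AhR antagonists were paired with standard or investigational drugs, each dosed in half-log steps down from near clinical Cmax, or from 10 microM where Cmax was unknown.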

[1] = second compound 0.1 µM, first compound 0.0316 µM
[2] = second compound 0.1 µM, first compound 0.1 µM
[3] = second compound 0.1 µM, first compound 0.316 µM
[4] = second compound 0.1 µM, first compound 1 µM
[5] = second compound 0.1 µM, first compound 3.16 µM
[6] = second compound 0.1 µM, first compound 10 µM
[7] = second compound 0.316 µM, first compound 0.0316 µM
[8] = second compound 0.316 µM, first compound 0.1 µM
[9] = second compound 0.316 µM, first compound 0.316 µM
[10] = second compound 0.316 µM, first compound 1 µM
[11] = second compound 0.316 µM, first compound 3.16 µM
[12] = second compound 0.316 µM, first compound 10 µM
[13] = second compound 1 µM, first compound 0.0316 µM
[14] = second compound 1 µM, first compound 0.1 µM
[15] = second compound 1 µM, first compound 0.316 µM
[16] = second compound 1 µM, first compound 1 µM
[17] = second compound 1 µM, first compound 3.16 µM
[18] = second compound 1 µM, first compound 10 µM
[19] = second compound 3.16 µM, first compound 0.0316 µM
[20] = second compound 3.16 µM, first compound 0.1 µM
[21] = second compound 3.16 µM, first compound 0.316 µM
[22] = second compound 3.16 µM, first compound 1 µM
[23] = second compound 3.16 µM, first compound 3.16 µM
[24] = second compound 3.16 µM, first compound 10 µM
[25] = second compound 10 µM, first compound 0.0316 µM
[26] = second compound 10 µM, first compound 0.1 µM
[27] = second compound 10 µM, first compound 0.316 µM
[28] = second compound 10 µM, first compound 1 µM
[29] = second compound 10 µM, first compound 3.16 µM
[30] = second compound 10 µM, first compound 10 µM
[31] = second compound 0.1 µM, first compound 0.00316 µM
[32] = second compound 0.1 µM, first compound 0.01 µM
[33] = second compound 0.316 µM, first compound 0.00316 µM
[34] = second compound 0.316 µM, first compound 0.01 µM
[35] = second compound 1 µM, first compound 0.00316 µM
[36] = second compound 1 µM, first compound 0.01 µM
[37] = second compound 3.16 µM, first compound 0.00316 µM
[38] = second compound 3.16 µM, first compound 0.01 µM
[39] = second compound 10 µM, first compound 0.00316 µM
[40] = second compound 10 µM, first compound 0.01 µM

SMILES | IC50 (second compound 0.1 µM) [nM] | IC50 (second compound 0.316 µM) [nM] | IC50 (second compound 1 µM) [nM] | IC50 (second compound 3.16 µM) [nM] | IC50 (second compound 10 µM) [nM] | viability, T/C [1] [%] | viability, T/C [2] [%] | viability, T/C [3] [%] | viability, T/C [4] [%] | viability, T/C [7] [%] | viability, T/C [8] [%] | viability, T/C [9] [%] | viability, T/C [10] [%] | viability, T/C [13] [%] | viability, T/C [14] [%] | viability, T/C [15] [%] | viability, T/C [19] [%] | viability, T/C [20] [%] | viability, T/C [25] [%] | viability, T/C [26] [%] | also measured
CC(C)c1c(-c2ccccc2)nc2c(C#N)c[nH]n2c1=O + Cc1ccccc1N=Nc1ccc(NC(=O)c2ccnn2C)c(C)c1 | > 10000 | > 10000 | > 10000 | > 10000 | < 31.6 | 84.2 | 87.6 | 86.5 | 87.5 | 99 | 82.8 | 84.2 | 92.2 | 90.1 | 93.8 | 74 | 72.2 | 77.1 | 44.9 | 49 | viability, T/C [5]: 81.7%; viability, T/C [6]: 96.4%; viability, T/C [11]: 97.5%; viability, T/C [12]: 83.2%; viability, T/C [16]: 81.7%; viability, T/C [17]: 83.8%; viability, T/C [18]: 95.7%; viability, T/C [21]: 59.5%; viability, T/C [22]: 72.2%; viability, T/C [23]: 73.3%; viability, T/C [24]: 76.4%; viability, T/C [27]: 52%; viability, T/C [28]: 48.6%; viability, T/C [29]: 59.3%; viability, T/C [30]: 42.9%
Nc1ccn(C2OC(CO)C(O)C2(F)F)c(=O)n1 (stereo not given) + Cc1cncc(-c2nc(NCCc3c[nH]c4ccccc34)c3ncn(C(C)C)c3n2)c1 | < 31.6 | < 31.6 | < 31.6 | < 31.6 | < 31.6 | 28.4 | 28.2 | 25.5 | 25.2 | 30.6 | 28.5 | 25.9 | 25.6 | 29.2 | 31.7 | 27.9 | 32.8 | 27.1 | 36.6 | 23.7 | viability, T/C [5]: 27.6%; viability, T/C [6]: 20.8%; viability, T/C [11]: 22.7%; viability, T/C [12]: 21.5%; viability, T/C [16]: 26.4%; viability, T/C [17]: 24.3%; viability, T/C [18]: 20.9%; viability, T/C [21]: 28.5%; viability, T/C [22]: 27%; viability, T/C [23]: 26.8%; viability, T/C [24]: 21.6%; viability, T/C [27]: 28.9%; viability, T/C [28]: 27.3%; viability, T/C [29]: 30.8%; viability, T/C [30]: 23.1%
Nc1ncn(C2CC(O)C(CO)O2)c(=O)n1 (stereo not given) + Cc1cncc(-c2nc(NCCc3c[nH]c4ccccc34)c3ncn(C(C)C)c3n2)c1 | 206 | 264 | 80.4 | 481 | < 3.16 | 81.4 | 54.7 | 48.8 | 28.1 | 78.2 | 55.6 | 52.1 | 27.9 | 68 | 45.3 | 45.9 | 69.2 | 70.2 | 21.3 | 19.5 | viability, T/C [31]: 83%; viability, T/C [32]: 89.2%; viability, T/C [33]: 75.5%; viability, T/C [34]: 86.1%; viability, T/C [35]: 73%; viability, T/C [36]: 82.7%; viability, T/C [16]: 33.3%; viability, T/C [37]: 71.4%; viability, T/C [38]: 72%; viability, T/C [21]: 53.7%; viability, T/C [22]: 38%; viability, T/C [39]: 25.7%; viability, T/C [40]: 26.9%; viability, T/C [27]: 20.1%; viability, T/C [28]: 18.9%

Continued, in another order:

IC50 (second compound 0.1 µM) [nM] | IC50 (second compound 0.316 µM) [nM] | IC50 (second compound 1 µM) [nM] | IC50 (second compound 3.16 µM) [nM] | IC50 (second compound 10 µM) [nM] | SMILES | viability, T/C [1] [%] | viability, T/C [2] [%] | viability, T/C [3] [%] | viability, T/C [4] [%] | viability, T/C [7] [%] | viability, T/C [8] [%] | viability, T/C [9] [%] | viability, T/C [10] [%] | viability, T/C [13] [%] | viability, T/C [14] [%] | viability, T/C [15] [%] | viability, T/C [19] [%] | viability, T/C [20] [%] | viability, T/C [25] [%] | viability, T/C [26] [%] | also measured
23.6 | 21.4 | 18.7 | 7.91 | < 0.316 | CC[C@@]1(O)C(=O)OCc2c1cc1n(c2=O)Cc2cc3c(CN(C)C)c(O)ccc3nc2-1 + Cc1cncc(-c2nc(NCCc3c[nH]c4ccccc34)c3ncn(C(C)C)c3n2)c1 | 42.5 | 38.4 |  |  | 43.5 | 38.2 |  |  | 40.9 | 32.2 |  | 37.1 | 35.5 | 19.2 | 15.1 | viability, T/C (second compound 0.1 µM, first compound 0.000316 µM): 90.4%; viability, T/C (second compound 0.1 µM, first compound 0.001 µM): 81.1%; viability, T/C [31]: 69.8%; viability, T/C [32]: 64%; viability, T/C (second compound 0.316 µM, first compound 0.000316 µM): 67.3%; viability, T/C (second compound 0.316 µM, first compound 0.001 µM): 76.8%; viability, T/C [33]: 75.5%; viability, T/C [34]: 63.2%; viability, T/C (second compound 1 µM, first compound 0.000316 µM): 68.8%; viability, T/C (second compound 1 µM, first compound 0.001 µM): 76.1%; viability, T/C [35]: 77.2%; viability, T/C [36]: 60.8%; viability, T/C (second compound 3.16 µM, first compound 0.000316 µM): 72.9%; viability, T/C (second compound 3.16 µM, first compound 0.001 µM): 74.8%; viability, T/C [37]: 66.6%; viability, T/C [38]: 45.7%; viability, T/C (second compound 10 µM, first compound 0.000316 µM): 25.8%; viability, T/C (second compound 10 µM, first compound 0.001 µM): 24.8%; viability, T/C [39]: 24.9%; viability, T/C [40]: 18%
416 | 611 | 283 | 233 | < 31.6 | COc1cc(C2c3cc4c(cc3C(OC3OC5COC(C)OC5C(O)C3O)C3COC(=O)C23)OCO4)cc(OC)c1O (stereo not given) + Cc1cncc(-c2nc(NCCc3c[nH]c4ccccc34)c3ncn(C(C)C)c3n2)c1 | 74.3 | 89.4 | 54.7 | 36.6 | 79.5 | 76.3 | 62.2 | 40.9 | 74.9 | 72.9 | 47.6 | 76.1 | 61.4 | 30.6 | 27.4 | viability, T/C [5]: 34.1%; viability, T/C [6]: 34%; viability, T/C [11]: 35.1%; viability, T/C [12]: 34.2%; viability, T/C [16]: 36%; viability, T/C [17]: 40.5%; viability, T/C [18]: 34.2%; viability, T/C [21]: 41.7%; viability, T/C [22]: 44%; viability, T/C [23]: 35.7%; viability, T/C [24]: 32.7%; viability, T/C [27]: 23.1%; viability, T/C [28]: 23.5%; viability, T/C [29]: 14%; viability, T/C [30]: 14.1%
< 31.6 | < 31.6 | < 31.6 | < 31.6 | < 31.6 | COc1cccc2c1C(=O)c1c(O)c3c(c(O)c1C2=O)CC(O)(C(=O)CO)CC3OC1CC(N)C(O)C(C)O1 (stereo not given) + Cc1cncc(-c2nc(NCCc3c[nH]c4ccccc34)c3ncn(C(C)C)c3n2)c1 | 51 | 43 | 33.4 | 16 | 43.4 | 39.2 | 34.8 | 13 | 39.5 | 37.5 | 28.9 | 38.9 | 35 | 16.8 | 16.6 | viability, T/C [5]: 0.94%; viability, T/C [6]: 5.91%; viability, T/C [11]: 0.92%; viability, T/C [12]: 4.49%; viability, T/C [16]: 10.9%; viability, T/C [17]: 1.66%; viability, T/C [18]: 4.68%; viability, T/C [21]: 27.1%; viability, T/C [22]: 5.93%; viability, T/C [23]: 2.35%; viability, T/C [24]: 6.56%; viability, T/C [27]: 14.3%; viability, T/C [28]: 2.4%; viability, T/C [29]: 6.71%; viability, T/C [30]: 5.96%
